Measurements published in ChEMBL document CHEMBL1126210, “Conformationally restricted peptide isosteres. 2.1 Synthesis and in vitro potency of dipeptide renin inhibitors employing a 2-alkylsulfonyl-3-phenylcyclopropane carboxamide as a P3 amino acid replacement” (Bioorg Med Chem Lett, 1992).
pIC50: −log10 of the molar value.

Key:
[1] = target: T1, Renin (Homo sapiens, UniProt P00797); assay: In vitro inhibition of purified human renin at PH 6.0
T1 sequence (P00797 whole entry): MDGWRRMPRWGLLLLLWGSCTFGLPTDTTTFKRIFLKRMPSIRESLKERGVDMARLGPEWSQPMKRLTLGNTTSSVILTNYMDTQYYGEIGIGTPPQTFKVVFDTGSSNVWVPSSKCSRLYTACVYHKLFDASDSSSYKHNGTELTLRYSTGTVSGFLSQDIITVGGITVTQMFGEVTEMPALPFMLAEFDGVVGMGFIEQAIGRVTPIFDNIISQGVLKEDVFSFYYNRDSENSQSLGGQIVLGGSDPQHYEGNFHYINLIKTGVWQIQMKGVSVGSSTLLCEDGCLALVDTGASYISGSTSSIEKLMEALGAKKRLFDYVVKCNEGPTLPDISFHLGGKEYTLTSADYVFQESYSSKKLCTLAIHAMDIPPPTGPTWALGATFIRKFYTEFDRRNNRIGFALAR

[2] = target: T1, Renin; assay: In vitro inhibition of human plasma renin at PH 7.4

| Compound | pIC50 [1] | pIC50 [2] |
| --- | --- | --- |
| CC(C)C[C@H](O)[C@H](O)[C@H](CC1CCCCC1)NC(=O)[C@H](Cc1cscn1)NC(=O)[C@H]1[C@H](CC(=O)N2CCOCC2)[C@@H]1c1ccccc1 | 9.15 | 7.70 |
| CC(C)C[C@H](O)[C@H](O)[C@H](CC1CCCCC1)NC(=O)[C@H](Cc1cscn1)NC(=O)[C@H](Cc1ccccc1)CS(=O)(=O)C(C)(C)C | – | 9.06 |
| CC(C)C[C@H](O)[C@H](O)[C@H](CC1CCCCC1)NC(=O)[C@H](Cc1cscn1)NC(=O)[C@@H]1[C@@H](C2CCCCC2)[C@H]1S(=O)(=O)C(C)C | 9.10 | 7.82 |
| CC(C)C[C@H](O)[C@H](O)[C@H](CC1CCCCC1)NC(=O)[C@H](Cc1cscn1)NC(=O)[C@H]1[C@H](c2ccccc2)[C@@H]1S(=O)(=O)C(C)C | 8.15 | 7.07 |
| C=CS(=O)(=O)[C@@H]1[C@@H](C(=O)N[C@@H](Cc2cscn2)C(=O)N[C@@H](CC2CCCCC2)[C@@H](O)[C@@H](O)CC(C)C)[C@@H]1c1ccccc1 | 8.14 | 7.57 |
| CC(C)C[C@H](O)[C@H](O)[C@H](CC1CCCCC1)NC(=O)[C@H](Cc1cscn1)NC(=O)[C@H](Cc1ccccc1)CS(=O)(=O)N1CCOCC1 | – | 8.85 |
| CC(C)C[C@H](O)[C@H](O)[C@H](CC1CCCCC1)NC(=O)[C@H](Cc1cscn1)NC(=O)[C@@H]1[C@@H](c2ccccc2)[C@H]1S(=O)(=O)c1ccccc1 | 8.92 | 7.54 |
| CC(C)C[C@H](O)[C@H](O)[C@H](CC1CCCCC1)NC(=O)[C@H](Cc1cscn1)NC(=O)[C@H]1[C@H](C2CCCCC2)[C@@H]1S(=O)(=O)C(C)C | 7.85 | – |
| CC(C)C[C@H](NC(=O)[C@H]1[C@H](c2ccccc2)[C@@H]1S(=O)(=O)C(C)C)C(=O)N[C@@H](CC1CCCCC1)[C@@H](O)[C@@H](O)CC(C)C | 8.36 | 6.43 |
| CCCC[C@H](NC(=O)[C@@H]1[C@@H](c2ccccc2)[C@H]1S(=O)(=O)C(C)C)C(=O)N[C@@H](CC1CCCCC1)[C@@H](O)[C@@H](O)CC(C)C | 9.43 | 7.89 |
| CC(C)C[C@H](O)[C@H](O)[C@H](CC1CCCCC1)NC(=O)[C@H](Cc1cscn1)NC(=O)[C@@H]1[C@@H](c2ccccc2)[C@H]1S(C)(=O)=O | 9.20 | 7.64 |
| CC(C)C[C@H](O)[C@H](O)[C@H](CC1CCCCC1)NC(=O)[C@H](Cn1ccnc1)NC(=O)[C@H]1[C@H](c2ccccc2)[C@@H]1S(=O)(=O)C(C)C | 8.60 | 7.82 |
| CC(C)C[C@H](O)[C@H](O)[C@H](CC1CCCCC1)NC(=O)[C@H](Cc1cscn1)NC(=O)[C@@H]1[C@@H](c2ccccc2)[C@H]1S(=O)(=O)C(C)C | 9.42 | 8.10 |
| COCOCCS(=O)(=O)[C@H]1[C@H](C(=O)N[C@@H](Cc2cscn2)C(=O)N[C@@H](CC2CCCCC2)[C@@H](O)[C@@H](O)CC(C)C)[C@H]1c1ccccc1 | 9.32 | 7.80 |
| COCOCCS(=O)(=O)[C@@H]1[C@@H](C(=O)N[C@@H](Cc2cscn2)C(=O)N[C@@H](CC2CCCCC2)[C@@H](O)[C@@H](O)CC(C)C)[C@@H]1c1ccccc1 | 9.00 | 7.48 |
| C=CS(=O)(=O)[C@H]1[C@H](C(=O)N[C@@H](Cc2cscn2)C(=O)N[C@@H](CC2CCCCC2)[C@@H](O)[C@@H](O)CC(C)C)[C@H]1c1ccccc1 | 9.20 | 7.77 |
| CO[C@@H](CC(C)C)[C@H](O)[C@H](CC1CCCCC1)NC(=O)[C@H](Cc1cscn1)NC(=O)C(Cc1ccccc1)CS(=O)(=O)c1ccccc1 (stereo partly drawn) | 9.11 | 7.74 |
| CC(C)C[C@H](O)[C@H](O)[C@H](CC1CCCCC1)NC(=O)[C@H](Cn1ccnc1)NC(=O)[C@@H]1[C@@H](c2ccccc2)[C@H]1S(=O)(=O)C(C)C | 8.85 | 8.24 |
| CC(C)C[C@H](NC(=O)[C@@H]1[C@@H](c2ccccc2)[C@H]1S(=O)(=O)C(C)C)C(=O)N[C@@H](CC1CCCCC1)[C@@H](O)[C@@H](O)CC(C)C | 9.23 | 7.85 |
| CC(C)C[C@H](O)[C@H](O)[C@H](CC1CCCCC1)NC(=O)[C@H](Cc1cscn1)NC(=O)[C@H]1[C@H](c2ccccc2)[C@@H]1S(C)(=O)=O | 7.64 | – |
| CCCC[C@H](NC(=O)[C@H]1[C@H](c2ccccc2)[C@@H]1S(=O)(=O)C(C)C)C(=O)N[C@@H](CC1CCCCC1)[C@@H](O)[C@@H](O)CC(C)C | 8.72 | 6.80 |
